Laboratory results taken from patent US4831170A, “Pharmaceutically active phospino-hydrocarbon-group VIII-metal complexes, antitumor compositions containing these complexes, and a process for preparing said compounds or antitumor compositions” (priority 1985, dated 1989).

Columns and labels:
[1] = Struck et al., J. Med. Chem., 9, 414 (1966); cited from earlier work
[2] = system: HCT-116 human colon carcinoma cells; experiment: In vitro cytotoxicity, HCT-116 human colon carcinoma cells (72 h, crystal violet); assay type: cell-based; conditions: HCT-116 cells
Protocol: (§1) Logarithmically growing cells were harvested by mild trypsinization and 4000 cells were added to each well of a 96-well microtiter plate (Costar). […] The cells were then treated with a metal complex or cisplatin and incubated for 72 hours. The plates were inverted and shaken to remove media, drug and detached cells. […] The fixative was removed, the plates air dried, stained with 0.0075% crystal violet for 15 minutes, washed twice and air dried. The stain was solubilized with 0.2 ml of 0.1 M AcOH/EtOH (1:1) and optical densities determined using a Dynatech MR600 microtiter plate reader. […] The compounds were prepared for in vivo treatment by dissolving or suspending, with the addition of minimal amounts of Tween 80, in water.

[3] = system: L1210 murine leukemia resistant to cisplatin (L1210:DDP); experiment: Antitumor activity against cisplatin-resistant L1210 murine leukemia (L1210/DDP) in CDF1 mice; assay type: in vivo; conditions: cisplatin-resistant subline, day 1; for L1210/DDP Dose producing the maximum % T/C: administered ip; for L1210/DDP Max. % T/C: done concomitantly with L1210 test, ip, active if ≥125
Protocol: (§2) All of the metal complexes were tested for antitumor activity against P388 murine leukemia. Selected compounds were also tested for antitumor activity against L1210 murine leukemia and a subline of L1210 murine leukemia resistant to cisplatin (L1210:DDP). CDF1 mice weighing 20 grams were inoculated intraperitoneally with 10^6 ascites cells of P388 leukemia, L1210 leukemia or L1210:DDP leukemia, depending on the test system being used. Drug administration was initiated the day following tumor implantation in all test systems. The complexes were administered at various dose levels by intraperitoneal injection. Groups of four to six mice were used for each dose level and they were treated with the complex on day one only. A group of ten saline treated control mice was included in each experiment. Cisplatin treated groups were included as a positive control in each experiment. The mice were weighed before treatment and again on day five or six and the average weight change used as a measure of toxicity. The animals were observed daily for mortality and the experiments terminated after 30 days. Antitumor activity was determined based on % T/C, which is the ratio of the median survival time of the drug treated group to the median survival time of the saline treated control group times 100. The saline treated mice usually have a median survival time of 9 days with P388 leukemia and 7 days with L1210 and L1210/DDP leukemia. A complex is considered active if it produces a % T/C of ≥125.
(§3) Tables II and IIa contain summaries of the evaluations of the compounds for antitumor activity against the murine leukemias. Listed for each compound is the maximum % T/C achieved and the dose producing that effect.
(§4) For the in vitro cytotoxicity studies the drugs were dissolved or suspended, depending on their solubility, in 0.9% NaCl solution. Occasionally, 5% dextrose in water or 10% DMSO in 0.9% NaCl was used. The compounds were prepared for in vivo treatment by dissolving or suspending, with the addition of minimal amounts of Tween 80, in water.

[4] = system: B16-F10 murine melanoma cells; experiment: In vitro cytotoxicity, B16-F10 murine melanoma cells (72 h, crystal violet); assay type: cell-based
Protocol: as §1

L1210 murine leukemia = experiment: Antitumor activity against L1210 murine leukemia in CDF1 mice; assay type: in vivo; conditions: day 1; for L1210 Dose producing the maximum % T/C: administered ip; for L1210 Max. % T/C: median survival time treated/saline control x 100, ip, active if ≥125
Protocol: as §2, §3, §4

P388 murine leukemia = experiment: Antitumor activity against P388 murine leukemia in CDF1 mice; assay type: in vivo; conditions: 1 x on day 1; for P 388 Dose producing the maximum % T/C: administered ip; for P 388 Maximum % T/C: median survival time treated/saline control x 100, ip, active if ≥125
Protocol: as §2, §3, §4

B16 Melanoma = experiment: Antitumor activity against B16 Melanoma in BDF1 mice; assay type: in vivo; conditions: for B 16 Dose producing the maximum % T/C: administered ip, days 1-9; for B 16 Maximum % T/C: median survival time vs saline control, ip, daily days 1-9, active if ≥125, figures separated by slashes are from separate experiments
Protocol: Several of the metal complexes were additionally evaluated for antitumor activity against B16 Melanoma. BDF1 mice, 10 per group, were inoculated intraperitoneally with 0.5 ml of a 10 percent (w:v) brei of B16 Melanoma. Intraperitoneal treatment with the metal complexes was initiated one day after implant and continued daily for a total of nine days. From 4 to 5 doses were tested for each compound under study. A saline treated control group and cisplatin treated groups were included in each experiment. The mice were observed daily for survivors and the experiments terminated after 60 days. […] The median survival time of the drug treated mice relative to that of the controls (% T/C) was used as a measure of antitumor activity.
Occasionally, 5% dextrose in water or 10% DMSO in 0.9% NaCl was used. The compounds were prepared for in vivo treatment by dissolving or suspending, with the addition of minimal amounts of Tween 80, in water.

SMILES | cytotoxic activity [1] | IC 50 (concentration which inhibits cell growth by 50%), HCT 116 [2] | L1210/DDP Dose producing the maximum % T/C [3] | L1210/DDP Max. % T/C [3] | IC 50 (concentration which inhibits cell growth by 50%), B 16 [4] | L1210 Dose producing the maximum % T/C (L1210 murine leukemia) | L1210 Max. % T/C (L1210 murine leukemia) | P 388 Dose producing the maximum % T/C (P388 murine leukemia) | P 388 Maximum % T/C (P388 murine leukemia) | B 16 Dose producing the maximum % T/C (B16 Melanoma) | B 16 Maximum % T/C (B16 Melanoma)
c1ccc(P(CCP(c2ccccc2)c2ccccc2)c2ccccc2)cc1 [1,2-bis-(diphenylphosphino)ethane, 1,2-bis(diphenylphosphino)ethane] | cytotoxic activity | – | – | – | – | – | – | – | – | – | –
O=[N+]([O-])[O-].O=[N+]([O-])[O-].[Co+2].c1ccc(P(CCP(c2ccccc2)c2ccccc2)c2ccccc2)cc1.c1ccc(P(CCP(c2ccccc2)c2ccccc2)c2ccccc2)cc1 [TNO 347, Bis[1,2-bis(diphenylphosphino)ethane]nitrato cobalt(II) nitrate] | – | > 500 µg/mL | 50 mg/kg | 150 % T/C | 413 µg/mL | 100 mg/kg | 100 % T/C | 100 mg/kg | 161 % T/C | 20 mg/kg/inj. | 171 % T/C
O=[N+]([O-])[O-].O=[N+]([O-])[O-].[Ni+2].c1ccc(P(CCP(c2ccccc2)c2ccccc2)c2ccccc2)cc1.c1ccc(P(CCP(c2ccccc2)c2ccccc2)c2ccccc2)cc1 [TNO 354, Bis[1,2-bis(diphenylphosphino)ethane]nickel(II) dinitrate] | – | 1.3 µg/mL | 80 mg/kg | 138 % T/C | 4.1 µg/mL | 80 mg/kg | 100 % T/C | 50 mg/kg | 139 % T/C | 30 mg/kg/inj. | 183 % T/C
